Patent US20160326547A1, “TRANSGENIC PRODUCTION OF HEPARIN” (LFB USA, INC., priority 2013, published 2016)
“Also recorded” adds a separate entry of the source.

How the values were obtained:
lactating goats [1] = test: Experiment 2: udder infusion of heparin, toxicity study in lactating goats; type: in vivo, goat
Experimental: A study was conducted to determine if the production of heparin in the mammary gland would also have a significant effect on the producing animal. The protein produced by the transgene can potentially affect the mammary gland directly. In addition, it is known that there is potential leakage of the protein into the systemic system. To assess the potential effects of systemic and infused heparin on the goat, the study outlined below was performed. Blood was drawn and milk collected from each milking animal at least once daily during two experiments to determine the effects of heparin administration relative to systemic and udder infusion routes. The levels of heparin, and clotting times as indicated by aPTT were calculated from blood serum. Milk volumes were measured and heparin levels in the milk were determined. In addition, the quality of the milk (color, consistency, evidence of clumping, blood, or mastitis) was noted. The general health of each animal was assessed daily, including a rectal temperature. Since heparin is an anticoagulant, animals were also inspected daily for any gross signs of bleeding, such as abnormal bruising or petechiae. Six normal, non-transgenic, lactating goats were fed approximately four pounds of specially formulated vegetarian goat feed, per day, and given a combination of timothy and alfalfa hay as well as free access to water and plain and mineralized salt blocks. As these were lactating animals, they were milked daily starting on the day they arrived. The milk volume was measured each day and a rectal temperature recorded Milk volumes and rectal temperatures prior to the first or second experiment can be seen below in Table 7. Animals were manually restrained so that the jugular vein could be identified. A 21-gauge ¾ inch butterfly needle (BD Vacutainer Blood Collection Set Ref 367251, Franklin Lakes, N.J. USA) was inserted into the vessel, and the blood was collected into 2-1.8 ml sodium citrate vacutainer tubes (BD Vacutainer, Buffered Na Citrate, Franklin Lakes, N.J. USA). After collection (or after blood collection and heparin administration—see below) the needle was removed, and pressure was applied at the collection site to stop any bleeding. The animal received positive reinforcement (grain reward) after each procedure. All goats were milked using a portable milking machine, once every day starting the day the goats arrived. Animals were placed on a milking stand for this procedure. The general protocol for milking was as follows. Personnel doing the milking washed their hands thoroughly and donned latex examination gloves. The udder was cleaned using paper towels and water. The udder was then dried using clean paper towels. The teat was cleaned again using alcohol wipes, and pre-dip (FS-106 Sanitizing Teat Dip, IBA Inc., Millbury, Mass. USA) was applied and allowed to dry. A small sample was expressed from the teat by hand to assess milk quality, perform a streak test, and to be frozen for further analysis. The milking machine was then attached to the udder. After milking, the teats were cleaned with alcohol, and post milking disinfectant was applied (Ultra Shield Sanitizing Barrier Teat Dip, IBA Inc., Millbury, Mass. USA). The volume of milk was determined, and the small sample was frozen and stored in a −80° C. chest freezer for subsequent testing. The six milking goats were divided into 3 groups of 2 goats. All goats were milked daily with a milking machine, and had blood samples taken. After milking and blood collection, goats had their udders infused with heparin using a teat infusion cannula (Udder Infusion Cannula, IBA Inc., Millbury, Mass. USA). Each group received either a low (25,000 Units), medium (100,000 Units), or high (500,000 Units) dose of infused heparin, equivalent to the 3 different expression levels being explored on a per liter of milk basis. Volumes infused were less than 50 ml per udder. This protocol was performed for a total of seven days. […]

lactating goats [2] = test: Experiment 1: systemic (intravenous) administration of heparin, toxicity study in lactating goats; type: in vivo, goat
Experimental: A study was conducted to determine if the production of heparin in the mammary gland would also have a significant effect on the producing animal. The protein produced by the transgene can potentially affect the mammary gland directly. In addition, it is known that there is potential leakage of the protein into the systemic system. To assess the potential effects of systemic and infused heparin on the goat, the study outlined below was performed. Blood was drawn and milk collected from each milking animal at least once daily during two experiments to determine the effects of heparin administration relative to systemic and udder infusion routes. The levels of heparin, and clotting times as indicated by aPTT were calculated from blood serum. Milk volumes were measured and heparin levels in the milk were determined. In addition, the quality of the milk (color, consistency, evidence of clumping, blood, or mastitis) was noted. The general health of each animal was assessed daily, including a rectal temperature. Since heparin is an anticoagulant, animals were also inspected daily for any gross signs of bleeding, such as abnormal bruising or petechiae. Six normal, non-transgenic, lactating goats were fed approximately four pounds of specially formulated vegetarian goat feed, per day, and given a combination of timothy and alfalfa hay as well as free access to water and plain and mineralized salt blocks. As these were lactating animals, they were milked daily starting on the day they arrived. The milk volume was measured each day and a rectal temperature recorded Milk volumes and rectal temperatures prior to the first or second experiment can be seen below in Table 7. Animals were manually restrained so that the jugular vein could be identified. A 21-gauge ¾ inch butterfly needle (BD Vacutainer Blood Collection Set Ref 367251, Franklin Lakes, N.J. USA) was inserted into the vessel, and the blood was collected into 2-1.8 ml sodium citrate vacutainer tubes (BD Vacutainer, Buffered Na Citrate, Franklin Lakes, N.J. USA). After collection (or after blood collection and heparin administration—see below) the needle was removed, and pressure was applied at the collection site to stop any bleeding. The animal received positive reinforcement (grain reward) after each procedure. The animals were restrained as above. The butterfly needle used for blood collection described above is designed so that blood can be collected via a vacutainer blood collection tube, or a syringe can be attached. Thus, after blood collection, the part of the needle that connects with the blood collection tube was removed, and a syringe with heparin was attached and the heparin was slowly injected. An additional 0.4 ml of sterile normal saline was flushed through the needle to ensure that all heparin was delivered. In this way a single needle placement was used for both blood collection and heparin injection, and any additional stress relative to a second venipuncture site was avoided. All goats were milked using a portable milking machine, once every day starting the day the goats arrived. Animals were placed on a milking stand for this procedure. The general protocol for milking was as follows. Personnel doing the milking washed their hands thoroughly and donned latex examination gloves. The udder was cleaned using paper towels and water. The udder was then dried using clean paper towels. […]

[3] = Medium dose udder infusion (100,000 units per liter), Animal 4, days 1-8, day 1
[4] = Medium dose udder infusion (100,000 units per liter), Animal 4, days 1-8, day 2
[5] = Medium dose udder infusion (100,000 units per liter), Animal 4, days 1-8, day 3
[6] = Medium dose udder infusion (100,000 units per liter), Animal 4, days 1-8, day 4
[7] = Medium dose udder infusion (100,000 units per liter), Animal 4, days 1-8, day 5
[8] = Medium dose udder infusion (100,000 units per liter), Animal 4, days 1-8, day 6
[9] = Medium dose udder infusion (100,000 units per liter), Animal 4, days 1-8, day 7
[10] = goat infused with the highest levels
[11] = udder infusion, low or medium dose for a week

Substance: heparin
- Milk volume (lactating goats [1]; Low dose udder infusion (25,000 units/liter), Animal 1, days 1-8 (daily infusion days 1-7), day 1): 2.25 L
- Milk volume (lactating goats [1]; Low dose udder infusion (25,000 units/liter), Animal 1, days 1-8 (daily infusion days 1-7), day 3): 2.2 L
- Milk volume (lactating goats [1]; Low dose udder infusion (25,000 units/liter), Animal 1, days 1-8 (daily infusion days 1-7), day 4): 2.0 L
- Milk volume (lactating goats [1]; Low dose udder infusion (25,000 units/liter), Animal 1, days 1-8 (daily infusion days 1-7), day 5): 1.9 L
- Milk volume (lactating goats [1]; Low dose udder infusion (25,000 units/liter), Animal 1, days 1-8 (daily infusion days 1-7), day 6): 1.8 L
- Milk volume (lactating goats [1]; Low dose udder infusion (25,000 units/liter), Animal 1, days 1-8 (daily infusion days 1-7), day 7): 1.7 L
- aPTT time (lactating goats [1]; Low dose udder infusion (25,000 units/liter), Animal 1, days 1-8, day 1): 23.2 s
- aPTT time (lactating goats [1]; Low dose udder infusion (25,000 units/liter), Animal 1, days 1-8, day 2): 36 s
- aPTT time (lactating goats [1]; Low dose udder infusion (25,000 units/liter), Animal 1, days 1-8, day 3): 37 s
- aPTT time (lactating goats [1]; Low dose udder infusion (25,000 units/liter), Animal 1, days 1-8, day 4): 34.9 s
- aPTT time (lactating goats [1]; Low dose udder infusion (25,000 units/liter), Animal 1, days 1-8, day 5): 34.5 s
- aPTT time (lactating goats [1]; Low dose udder infusion (25,000 units/liter), Animal 1, days 1-8, day 6): 34.6 s
- aPTT time (lactating goats [1]; Low dose udder infusion (25,000 units/liter), Animal 1, days 1-8, day 7): 33.5 s
- aPTT time (lactating goats [1]; Low dose udder infusion (25,000 units/liter), Animal 1, days 1-8, day 8): 33.1 s
- Milk volume (lactating goats [1]; Medium dose udder infusion (100,000 units per liter), Animal 2, days 1-8, day 1): 2 L
- Milk volume (lactating goats [1]; Medium dose udder infusion (100,000 units per liter), Animal 2, days 1-8, day 2): 1.35 L
- Milk volume (lactating goats [1]; Medium dose udder infusion (100,000 units per liter), Animal 2, days 1-8, day 3): 1.5 L
- Milk volume (lactating goats [1]; Medium dose udder infusion (100,000 units per liter), Animal 2, days 1-8, day 4): 1.6 L
- Milk volume (lactating goats [1]; Medium dose udder infusion (100,000 units per liter), Animal 2, days 1-8, day 5): 1.3 L
- Milk volume (lactating goats [1]; Medium dose udder infusion (100,000 units per liter), Animal 2, days 1-8, day 6): 1.2 L
- Milk volume (lactating goats [1]; Medium dose udder infusion (100,000 units per liter), Animal 2, days 1-8, day 7): 1.25 L
- Milk volume (lactating goats [1]; Medium dose udder infusion (100,000 units per liter), Animal 2, days 1-8, day 8): 1.75 L
- Milk volume (lactating goats [1]; [3]): 3.25 L
- aPTT time (lactating goats [1]; [3]): 24.7 s
- Milk volume (lactating goats [1]; [4]): 2.75 L
- aPTT time (lactating goats [1]; [4]): 32.7 s
- Milk volume (lactating goats [1]; [5]): 2.5 L
- aPTT time (lactating goats [1]; [5]): 44 s
- Milk volume (lactating goats [1]; [6]): 1.9 L
- aPTT time (lactating goats [1]; [6]): 30.2 s
- Milk volume (lactating goats [1]; [7]): 2.2 L
- aPTT time (lactating goats [1]; [7]): 42.4 s
- Milk volume (lactating goats [1]; [8]): 2.0 L
- aPTT time (lactating goats [1]; [8]): 42.1 s
- Milk volume (lactating goats [1]; [9]): 2.25 L
- aPTT time (lactating goats [1]; [9]): 22.9 s
- aPTT time (lactating goats [1]; Medium dose udder infusion (100,000 units per liter), Animal 4, days 1-8, day 8): 29.8 s
- Milk volume during heparin infusion into the udder (lactating goats [1]; all infusion levels): initial drop in milk volume
- Milk production (lactating goats [1]; [10]): dramatic decrease in milk production
- Udder response (lactating goats [1]; [10]): inflammatory response
- aPTT (lactating goats [1]; high levels of infused heparin): dramatically increased
- Goat health and milk production (lactating goats [1]; low and medium doses of systemic and infused heparin (overall conclusion)): minimal effects
- aPTT (lactating goats [1]; single daily udder infusions of low or medium dose for a week): ≤ 55 s
- Systemic effects (lactating goats [1]; udder infusion of the highest levels): high body temperature and increased respiratory sounds
- Body temperature (lactating goats [1]; [11]): little effect
- Signs of bleeding (lactating goats [1]; [11]): did not produce any signs of bleeding
- aPTT during washout period after heparin udder infusion (lactating goats [1]; washout after udder infusion): 20 to 40 s
- aPTT (lactating goats [2]; High dose (31,000 Units IV TID), noon and 4 PM samples, above instrument maximum): > 124 s
- aPTT overnight between the two high doses (lactating goats [2]; High dose IV, second High AM sample prior to AM dose): low 40's; also recorded: dropped to more normal levels overnight
- Lung sounds (lactating goats [2]; High dose IV, second day, noon and 4 PM examinations): increase in lung sounds in one animal
- Petechiae or abnormal bleeding (lactating goats [2]; IV heparin over 6 days, any dose): no obvious gross signs of bleeding; also recorded: no evidence of petechiae or abnormal bleeding
- Milk volumes and body temperatures (lactating goats [2]; any IV dose): little, if any, effect; also recorded: not affected
